Assay results reported in US5750754A, “Heterocyclic compounds” (Zeneca Limited, priority 1993, dated 1998).
Where a name gives a salt, the structure may show the parent alone.

Target: T1, human, citrated, platelet-rich plasma (Homo sapiens, UniProt P05106+P08514)
T1 construct: aggregating human, citrated, platelet-rich plasma; endogenous in cells; host or cells: human platelets in citrated platelet-rich plasma
Test: Test (a): inhibition of ADP stimulated platelet aggregation (Born)
Type: cell-based
Settings: ADP induced aggregation of human platelet-rich plasma; for Kb: read-out: Test (a): pA2 value indicating potency of platelet aggregation inhibition (converted)
Description: (i) aggregating human, citrated, platelet-rich plasma by addition of adenosine diphosphate so as to generate a dose-response curve;
(ii) generating a dose-response curve for ADP stimulated platelet aggregation in the presence of increasing amounts of a test compound (generally in the range 10-^5 M to 10-^10 M); and
(iii) calculating a pA2 value indicating potency of platelet aggregation inhibition for the test compound, averaged over several concentrations, from the calculated 50% response value for ADP aggregation in the presence and absence of the test compound.

T1 sequence (P08514 32-887 limits assumed): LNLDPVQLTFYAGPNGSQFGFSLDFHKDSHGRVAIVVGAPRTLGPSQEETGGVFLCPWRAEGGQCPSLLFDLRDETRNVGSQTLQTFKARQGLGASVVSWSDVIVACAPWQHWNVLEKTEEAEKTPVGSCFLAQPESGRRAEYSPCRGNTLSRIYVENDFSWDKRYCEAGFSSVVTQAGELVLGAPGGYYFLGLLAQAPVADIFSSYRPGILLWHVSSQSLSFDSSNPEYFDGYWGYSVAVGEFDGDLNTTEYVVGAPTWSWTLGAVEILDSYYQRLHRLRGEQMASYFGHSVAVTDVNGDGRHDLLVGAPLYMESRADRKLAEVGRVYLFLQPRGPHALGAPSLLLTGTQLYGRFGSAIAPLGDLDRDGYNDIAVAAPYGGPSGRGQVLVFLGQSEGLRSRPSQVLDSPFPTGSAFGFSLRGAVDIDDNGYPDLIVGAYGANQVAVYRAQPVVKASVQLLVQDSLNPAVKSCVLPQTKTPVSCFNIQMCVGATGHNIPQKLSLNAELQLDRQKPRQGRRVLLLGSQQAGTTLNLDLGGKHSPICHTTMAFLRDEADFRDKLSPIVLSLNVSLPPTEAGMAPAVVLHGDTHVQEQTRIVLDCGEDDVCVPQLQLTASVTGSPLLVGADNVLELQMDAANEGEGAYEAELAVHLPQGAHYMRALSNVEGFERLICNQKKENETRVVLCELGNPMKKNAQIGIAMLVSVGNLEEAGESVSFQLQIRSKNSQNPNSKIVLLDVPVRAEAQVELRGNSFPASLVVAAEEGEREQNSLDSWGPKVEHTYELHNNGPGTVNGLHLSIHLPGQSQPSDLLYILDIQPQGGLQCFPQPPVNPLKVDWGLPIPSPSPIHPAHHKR
T1 sequence (P08514 891-1039 limits assumed): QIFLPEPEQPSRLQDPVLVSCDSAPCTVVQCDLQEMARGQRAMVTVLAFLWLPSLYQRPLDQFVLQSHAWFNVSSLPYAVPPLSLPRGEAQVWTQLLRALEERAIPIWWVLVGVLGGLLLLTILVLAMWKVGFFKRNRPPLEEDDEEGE
T1 sequence (P05106 27-788): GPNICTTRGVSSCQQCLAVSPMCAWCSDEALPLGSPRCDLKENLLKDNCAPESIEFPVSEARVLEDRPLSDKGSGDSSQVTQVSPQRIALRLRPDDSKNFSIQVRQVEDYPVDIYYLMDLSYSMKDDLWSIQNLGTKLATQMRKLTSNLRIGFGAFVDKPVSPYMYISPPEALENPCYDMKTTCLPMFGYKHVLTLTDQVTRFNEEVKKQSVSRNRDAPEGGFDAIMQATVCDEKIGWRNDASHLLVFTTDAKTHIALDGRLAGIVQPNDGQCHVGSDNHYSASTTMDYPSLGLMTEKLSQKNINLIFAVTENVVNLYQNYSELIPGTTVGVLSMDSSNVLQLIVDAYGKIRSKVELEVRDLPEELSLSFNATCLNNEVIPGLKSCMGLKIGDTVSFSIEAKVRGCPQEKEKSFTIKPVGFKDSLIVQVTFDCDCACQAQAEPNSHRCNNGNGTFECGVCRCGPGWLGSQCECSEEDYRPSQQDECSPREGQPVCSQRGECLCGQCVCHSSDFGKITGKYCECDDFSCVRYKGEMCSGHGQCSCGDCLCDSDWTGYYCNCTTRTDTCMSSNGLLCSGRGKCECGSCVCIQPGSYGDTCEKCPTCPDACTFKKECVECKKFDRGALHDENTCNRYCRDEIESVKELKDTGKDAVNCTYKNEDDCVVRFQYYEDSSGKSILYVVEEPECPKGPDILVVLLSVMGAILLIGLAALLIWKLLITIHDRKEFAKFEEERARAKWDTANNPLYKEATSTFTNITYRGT

Row | Structure (SMILES) | Kb [nM] | Test (a): pA2 value indicating potency of platelet aggregation inhibition
1 | O=C(O)CC(COc1ccc(N2CCN(c3ccncc3)CC2)cc1)Cc1ccccc1 (racemic) [Example 220, RS 3-Benzyl-4-[4-[4-(4-pyridyl)piperazin-1-yl]phenoxy]-butyric acid] | 3160 | –
2 | CCOC(=O)CCCOc1ccc(N2CCN(c3ccncc3)CC2)cc1[N+](=O)[O-] [Example 217, Ethyl 4-[2-nitro-4-[4-(4-pyridyl)piperazin-1-yl]phenoxy]butyrate] | 316 | –
3 | O=C(O)CCCc1ccc(CN2CCN(c3ccncc3)CC2)cc1 [Example 180, 4-[4-[4-(4-Pyridyl)piperazin-1yl]methylphenyl]butyric acid, dihydrochloride] | 3160 | –
4 | CCOC(=O)CCCOc1ccc(N2CCN(c3ccncc3)CC2)cc1C [Example 209, Ethyl 4-[2-methyl-4-[4-(4-pyridyl)piperazin-1-yl]phenoxy]butyrate] | 200 | –
5 | O=C(O)CCC(=O)Nc1ccc(N2CCN(c3ccncc3)CC2)cc1 [Example 199, 4-Oxo-4-[4-[4-(4-pyridyl)piperazine-1-yl]phenyl]aminobutyric acid] | 501 | –
6 | CCCCS(=O)(=O)NC(CCOc1ccc(N2CCN(c3ccncc3)CC2)cc1)C(=O)OC (racemic) [Example 218, RS Methyl 2-n-butanesulphonylamino-4-[4-[4-(4-pyridyl)piperazin-1-yl]phenoxy]butyrate] | 1000 | –
7 | O=C(O)CN1CCC(Oc2ccc(N3CCN(c4ccncc4)CC3)cc2)CC1 [Example 238, 4-[4-[4-(Pyridyl)piperazin-1-yl]phenoxy]piperidineacetic acid] | 1260 | –
8 | C=CCc1cc(N2CCN(c3ccncc3)CC2)ccc1OCCCC(=O)OCC [Example 205, Ethyl 4-[2-allyl-4-[4-(4-pyridyl)piperazin-1-yl]phenoxy]butyrate] | 251 | –
9 | O=C(O)CCN(Cc1ccccc1)C(=O)c1ccc(N2CCN(c3ccncc3)CC2)cc1 [Example 236, 3-[4-[4-(4-Pyridyl)piperazin-1-yl]]-N-benzylbenzamidopropionic acid] | 794 | –
10 | CCCCS(=O)(=O)NC(CCOc1ccc(N2CCN(c3ccncc3)CC2)cc1)C(=O)O (racemic) [Example 219, RS 2-n-Butanesulphonylamino-4-[4-[4-(4-pyridyl)piperazin-1-yl]phenoxy]butyricacid] | 31.6 | –
11 | O=C(O)CN1CCCC(Oc2ccc(N3CCN(c4ccncc4)CC3)cc2)C1 (stereo not shown) [Example 239] | 2510 | –
12 | CCOC(=O)CCCCCOc1ccc(Nc2ccncc2)cc1 [Example 187, Ethyl 6-[4-(4-pyridylamino)phenoxy]hexanoate] | 15800 | –
13 | CCCc1cc(N2CCN(c3ccncc3)CC2)ccc1OCCCC(=O)O [Example 208, 4-[2-n-Propyl4-[4-(4-pyridyl)piperazin-1-yl]phenoxy]butyric acid] | 316 | –
14 | CCOC(=O)CCCOc1ccc(N2CCN(c3ccncc3)CC2=O)cc1 [Example 242, Ethyl 4-[4-[4-(4-pyridyl)piperazin-2-one-1yl]phenoxy]butyrate] | 316 | –
15 | COC(=O)c1ccc(Oc2ccc(N3CCN(c4ccncc4)CC3)cc2)nc1 [Example 232, Methyl 6-[4-[4-(4-pyridyl)piperazin-1-yl]phenoxy]pyridine-3-carbxylate] | 31600 | –
16 | CCCc1cc(C(=O)CN2CCN(c3ccncc3)CC2=O)ccc1OCC(=O)O [Example 240, [2-Propyl-4-[2-[4-(4-pyridyl)piperazin-2-one-1-yl]acetyl]]phenoxyacetic acid] | 25.1 | –
17 | O=C(O)CC(COc1ccc(N2CCN(c3ccncc3)CC2)cc1)c1ccccc1 (racemic) [Example 221, RS 3-Phenyl-4-[4-[4-(4-pyridyl)piperazin-1-yl]phenoxy]-butyric acid] | 158 | –
18 | CCOC(=O)CNC(=O)COc1ccc(C(=O)CN2CCN(c3ccncc3)CC2=O)cc1 [Example 216, Ethyl N 4-[2-(4-(4-pyridyl)piperazin-2-one-1-yl)acetyl]phenoxyacetylglycinate] | 2000 | –
19 | CC(C)(C)OC(=O)NC(CCOc1ccc(N2CCN(c3ccncc3)CC2)cc1)C(=O)O (racemic) [Example 212, RS 2-t-Butoxycarbonylamino-4-[4-[4-(4-pyridyl)piperazin-1-yl]phenoxy]butyric acid] | 79.4 | –
20 | O=C(O)CCCOc1ccc(N2CCN(c3ccncc3)CC2=O)cc1 [Example 243, 4-[4-[4-(4-Pyridyl)piperazin-2-one-1-yl]phenoxy]butyric acid] | 10 | –
21 | CN(C)c1ccncc1CCCOc1ccc(C[C@H](NC(=O)OCc2ccccc2)C(=O)O)cc1 [Example 225] | 158 | –
22 | Cc1cc(N2CCN(c3ccncc3)CC2)ccc1OCCCC(=O)O [Example 210, 4-[2-Methyl-4-[4-(4-pyridyl)piperazin-1-yl]phenoxy]-butyric acid] | 316 | –
23 | O=C(O)CCCCCOc1ccc(Nc2ccncc2)cc1 [Example 188, 6-[4-(4-Pridylamino)phenoxy]hexanoic acid hydrochloride] | – | 6.0
24 | CCOC(=O)COc1ccc(C(=O)CN2CCN(c3ccncc3)CC2=O)cc1 [Example 215, Ethyl 4-[2-[4-(4-pyridyl)piperazin-2-one-1-yl]acetyl]phenoxyacetate] | 126 | –
25 | Cc1cc(C(=O)CN2CCN(c3ccncc3)CC2=O)ccc1OCC(=O)O [Example 241, [2-Methyl-4-[2-[4-(4-pyridyl)piperazin-2-one-1-yl]acetyl]]phenoxyacetic acid] | 6.31 | –
